The source of these data is patent US11857551B1, “Methods for the prevention and treatment of hearing loss” (Ting Therapeutics LLC, priority 2020, dated 2024).

Structures are written as SMILES. Structures can show the parent of a compound that is named as a salt.

For one series, the system named is HEI-OC1 cells. The series can be described thus: Caspase-Glo 3/7 assay in cisplatin-treated HEI-OC1 cells. As to conditions: for activity at 40 µM / activity at 13.3 µM / activity at 0.165 µM: Mus musculus, HEI-OC1, 19 h, read-out: caspase activity reached; for caspase activity reached: normalized to cisplatin-only and media-only controls; for IC50: read-out: calculated IC50 (percent protection dose response, caspase 3/7), HEI-OC1 cells, 1 h pretreatment, 19 h co-incubation.

The test system of series [1] is zebrafish HCs (lateral-line neuromasts). The series can be described thus: Cisplatin ototoxicity in zebrafish, neuromast hair cell count.
Another series deals with cancer patients. The settings on record: cisplatin chemotherapy; cited from earlier work.
For a further series, the system named is zebrafish hair cells. The experiment in a line: Excitotoxic hair cell damage in zebrafish (FIG. 4C). Format: in vivo. The settings on record: P<0.05, one-way ANOVA. An excerpt: (*P<0.05, one-way ANOVA.)
Series [2] has as its system patients who received cisplatin chemotherapy. As to conditions: cited from earlier work.
Where [3] appears, read: 0.002, 0.018, 0.165, 1.48, 13.3 μM for 1 hour, then co-incubation with 400 μM cisplatin for 4 hours.

Procedure for HEI-OC1 cells: Cells were seeded at 8,000 cells/well in 96 well plates and left to attach overnight. […] The cells were co-incubated with cisplatin and drug candidates for an additional 19 hours prior to Caspase-Glo 3/7 assay (Promega, Madison, WI) as previously shown. […] The luminescence detection representing caspase activity in each well was obtained using a Cytation Hybrid Multi-Mode Reader (Biotek, Winooski, VT, USA). The percent protection of the cells was calculated using caspase 3/7 readouts and the following formula:
Caspase activity was measured using Caspase-Glo 3/7 assay and then the results were calculated as percentage of protection as an indicator of cell survival/viability. Percent protection for each compound at the tested dosages were then plotted to show dose response curves, and IC50s were calculated.

Take `CC(C(=O)Nc1cccc(/N=C/c2c(O)ccc3ccccc23)c1)c1ccccc1` (stereo not drawn) [salermide]: the activity at 40 µM with HEI-OC1 cells amounted to 0%. The “protection against cisplatin ototoxicity (CIHL) in zebrafish” value (shortened to “protection against cisplatin ototoxicity”) in series [1] (setting [3]) is given as “showed protection against CIHL”.

Regarding `CCc1c2c(nc3ccc(OC(=O)N4CCC(N5CCCCC5)CC4)cc13)-c1cc3c(c(=O)n1C2)COC(=O)[C@]3(O)CC` [irinotecan], the activity at 13.3 µM in the series on HEI-OC1 cells was around 60%. In addition, the “protection against cisplatin ototoxicity” value in series [1] (setting [3]) is “showed protection against CIHL”.

On to `O=C(O)[C@@H](S)[C@@H](S)C(=O)O` [succimer], for which the activity at 40 µM with HEI-OC1 cells was around 80%. Further, the “protection against cisplatin ototoxicity” value in series [1] (setting [3]) is reported as “showed protection against CIHL”.

On to `CCCc1cc(C(N)=S)ccn1` [prothionamide], for which, in the series on HEI-OC1 cells, the activity at 40 µM was around 50%. In series [1] (setting [3]), the “protection against cisplatin ototoxicity” value is given as “showed protection against CIHL”.

In the case of `CN1C(=O)[C@@]23C[C@]4([C@]56C[C@@]78SS[C@@](CO)(C(=O)N7[C@H]5Nc5ccccc56)N(C)C8=O)c5ccccc5N[C@@H]4N2C(=O)[C@]1(CO)SS3` [chaetocin], the activity at 13.3 µM in the series with HEI-OC1 cells was 0%.

As for `Sc1ncnc2nc[nH]c12` [6 mercaptopurine], the activity at 0.165 µM in the series on HEI-OC1 cells was around 70%. For the same molecule, in series [1] (setting [3]), the “protection against cisplatin ototoxicity” value is “showed protection against CIHL”.

Consider `CCCCC1(C2CCCC2)Cc2cc(OCCCC(=O)O)c(Cl)c(Cl)c2C1=O` (stereo not drawn) [DCPIB], for which the caspase activity reached in the series with HEI-OC1 cells (dosage ~4.4 μM, cisplatin 50 μM) is on record as 0%. In the series on HEI-OC1 cells (cisplatin 50 μM), the IC50 was 3.1 µM. Also, the “protection against cisplatin ototoxicity” value in series [1] (setting [3]) is given as “showed protection against CIHL”.

In turn, `CCCC[C@@H](C)/C=C(C)/C=C(\C)C(=O)NC1=C[C@@](O)(/C=C/C=C/C=C/C(=O)NC2=C(O)CCC2=O)[C@@H]2O[C@@H]2C1=O` [manumycin A] gave a caspase activity reached in the series with HEI-OC1 cells (dosage ~1.48 μM, cisplatin 50 μM) of around 35%. In addition, the IC50 with HEI-OC1 cells (cisplatin 50 μM) is 11.7 µM. Also, the “protection against cisplatin ototoxicity” value in series [1] (setting [3]) was “showed protection against CIHL”.

As for `C[C@@H]1C[C@H]2O[C@@H]2/C=C\C=C\C(=O)Cc2c(Cl)c(O)cc(O)c2C(=O)O1` [radicicol], in the series with HEI-OC1 cells, the activity at 13.3 µM worked out at 0%. Moreover, the “protection against cisplatin ototoxicity” value in series [1] (setting [3]) is “showed protection against CIHL”.

Take `O=C(Nc1ccc([N+](=O)[O-])cc1Cl)c1cc(Cl)ccc1O` [Niclosamide]: in the series with HEI-OC1 cells (dose 4.4 μM, cisplatin 50 μM, n=3 wells), the “caspase-3/7 activity versus control cells (in words)” value is recorded as “reduce caspase activity to comparable levels as control cells”. Also, the “cisplatin damage in zebrafish HCs at SO3 and O1-2 neuromasts” value in series [1] (pretreated with 0.002 μM, n=5 to 8 per group) was “significantly reduced Cisplatin damage”.

Turning to `CSc1ccc2c(c1)N(CCC1CCCCN1C)c1ccccc1S2` (stereo not drawn) [thioridazine], the activity at 40 µM with HEI-OC1 cells turned out to be 0%. Moreover, the “protection against cisplatin ototoxicity” value in series [1] (zebrafish, in vivo) is reported as “showed protection against CIHL”.

`CC(=O)c1c(O)c(C)c(O)c(Cc2c(O)c3c(c(C(=O)/C=C/c4ccccc4)c2O)OC(C)(C)C=C3)c1O` [rottlerin]: the activity at 13.3 µM in the series with HEI-OC1 cells amounted to 0%. Moreover, the “protection against cisplatin ototoxicity” value in series [1] (setting [3]) was “showed protection against CIHL”.

Consider `CC(S)C(=O)NCC(=O)O` (stereo not drawn) [tiopronin], for which, in series [1] (setting [3]), the “protection against cisplatin ototoxicity” value is “showed protection against CIHL”.

`Cc1nc2ccc(CN(C)c3ccc(C(=O)N[C@@H](CCC(=O)O)C(=O)O)s3)cc2c(=O)[nH]1` [raltitrexed]: the activity at 40 µM in the series on HEI-OC1 cells is around 20%. For the same molecule, in series [1] (setting [3]), the “protection against cisplatin ototoxicity” value is “showed protection against CIHL”.

As for `CC[C@@]1(O)C(=O)OCc2c1cc1n(c2=O)Cc2cc3ccccc3nc2-1` [camptothecin], the activity at 13.3 µM in the series on HEI-OC1 cells was around 80%. For the same molecule, the “protection against cisplatin ototoxicity” value in series [1] (setting [3]) is on record as “showed protection against CIHL”.

Take `C[C@H](CS)C(=O)N1CCC[C@H]1C(=O)O` [captopril]: in the series on HEI-OC1 cells, the activity at 0.165 µM is around 85%. Also, the “protection against cisplatin ototoxicity” value in series [1] (setting [3]) is given as “showed protection against CIHL”.

With `N.N.[Cl][Pt][Cl]` [Cisplatin], the “permanent hearing loss, share of treated cancer patients” value in the series on cancer patients was 40-60%.

For the molecule `O=c1[nH]cc(F)c(=O)[nH]1` [5-fluorouracil], the “protection of hair cells from excitotoxic damage” value in the series with zebrafish hair cells was “protect hair cells from excitotoxic damage”. In the series on HEI-OC1 cells, the activity at 13.3 µM was around 30%. In addition, in series [1] (setting [3]), the “protection against cisplatin ototoxicity” value was “showed protection against CIHL”.

Take `OCC(S)CS` (stereo not drawn) [dimercaptopropanol]: in the series on HEI-OC1 cells (dosage ~40 μM, cisplatin 50 μM), the caspase activity reached worked out at 0%. Further, the IC50 in the series on HEI-OC1 cells (cisplatin 50 μM) is around 15 µM. Further, the “protection against cisplatin ototoxicity” value in series [1] (setting [3]) was “showed protection against CIHL”.

For the molecule `CC(Nc1nc(N2CCCC2)nc2ccccc12)c1ccccc1` (stereo not drawn) [importazole], the “protection of hair cells from excitotoxic damage” value in the series with zebrafish hair cells was “protect hair cells from excitotoxic damage”. This molecule also had a caspase activity reached in the series with HEI-OC1 cells (dosage ~40 μM, cisplatin 50 μM) of 0%. The IC50 in the series with HEI-OC1 cells (cisplatin 50 μM) was 6.52 µM. Moreover, in series [1] (setting [3]), the “protection against cisplatin ototoxicity” value is recorded as “showed protection against CIHL”.

For the molecule `COC[C@H]1OC(=O)c2coc3c2[C@@]1(C)C1=C(C3=O)[C@@H]2CCC(=O)[C@@]2(C)C[C@H]1OC(C)=O` [wortmannin], in the series on HEI-OC1 cells, the activity at 40 µM was around 50%.

Take `CC(=O)c1c(C)c2cnc(Nc3ccc(N4CCNCC4)cn3)nc2n(C2CCCC2)c1=O` [palbociclib]: the activity at 40 µM with HEI-OC1 cells was around 80%.

Turning to `C1CCC(C(CC2CCCCN2)C2CCCCC2)CC1` (stereo not drawn) [perhexiline maleate], the activity at 40 µM in the series with HEI-OC1 cells amounted to 0%. Moreover, the “protection against cisplatin ototoxicity” value in series [1] (setting [3]) is given as “showed protection against CIHL”.

Regarding `CO[C@H]1C[C@@H]2CC[C@@H](C)[C@@](O)(O2)C(=O)C(=O)N2CCCC[C@H]2C(=O)O[C@H]([C@H](C)C[C@@H]2CC[C@@H](OCCO)[C@H](OC)C2)CC(=O)[C@H](C)/C=C(\C)[C@@H](O)[C@@H](OC)C(=O)[C@H](C)C[C@H](C)/C=C/C=C/C=C/1C` [everolimus], in the series with HEI-OC1 cells, the activity at 13.3 µM was 0%. In series [1] (setting [3]), the “protection against cisplatin ototoxicity” value is recorded as “showed protection against CIHL”.

Regarding `O=S([O-])([O-])=S.[Na+].[Na+]` [Sodium thiosulfate (STS), Sodium thiosulfate], in series [2] (patients with other cancers), the “protecting cisplatin-induced hearing loss (CIHL)” value was “ineffective”. The protecting hearing result in series [2] (pediatric patients with localized hepatoblastoma who received cisplatin chemotherapy) is listed as “effective”.
